# In patent US12459922B2 (Gilead Sciences, Inc., priority 2022, dated 2025):
# Tested on: endogenous cellular STAT1 (phosphorylated at Tyr701) in NCI-H1373 cells
# Assay: Phospho-STAT1 (Tyr701) LANCE Ultra TR-FRET Detection Assay
# Type: cell-based
# Details: Homo sapiens, NCI-H1373, 48 h, phospho-STAT1 (Tyr701) induction, read-out: NH1373 pSTAT1 EC50
row,Structure (SMILES),EC50 [µM]
1,"Cc1ncc(-c2cc3ccn(C[C@@H]4CCC[C@H](Nc5cn[nH]c(=O)c5C(F)(F)F)C4)c(=O)c3cc2F)nc1N [Example 262, 6-(6-amino-5-methylpyrazin-2-yl)-7-fluoro-2-(((1R,3S)-3-((6-oxo-5-(trifluoromethyl)-1,6-dihydropyridazin-4-yl)amino)cyclohexyl)methyl)isoquinolin-1(2H)-one]",0.193
2,"COc1ncc(-c2cc3ccn(C[C@@H]4CCC[C@H](Nc5cn[nH]c(=O)c5C(F)(F)F)C4)c(=O)c3cc2F)nc1N [Example 263, 6-(6-amino-5-methoxypyrazin-2-yl)-7-fluoro-2-(((1R,3S)-3-((6-oxo-5-(trifluoromethyl)-1,6-dihydropyridazin-4-yl)amino)cyclohexyl)methyl)isoquinolin-1(2H)-one]",0.122
3,"Nc1nc(-c2cc3ccn(C[C@@H]4CCC[C@H](Nc5cn[nH]c(=O)c5C(F)(F)F)C4)c(=O)c3cc2F)cnc1C(F)F [Example 264, 6-(6-amino-5-(difluoromethyl)pyrazin-2-yl)-7-fluoro-2-(((1R,3S)-3-((6-oxo-5-(trifluoromethyl)-1,6-dihydropyridazin-4-yl)amino)cyclohexyl)methyl)isoquinolin-1(2H)-one]",0.0761
4,"Nc1nc(-c2cc3ncn(C[C@@H]4CCC[C@H](Nc5cn[nH]c(=O)c5C(F)(F)F)C4)c(=O)c3cc2F)ncc1OC(F)F [Example 265, 7-(4-amino-5-(difluoromethoxy)pyrimidin-2-yl)-6-fluoro-3-(((1R,3S)-3-((6-oxo-5-(trifluoromethyl)-1,6-dihydropyridazin-4-yl)amino)cyclohexyl)methyl)quinazolin-4(3H)-one]",0.0523
5,"O=c1[nH]ncc(N[C@H]2CCC[C@@H](Cn3ccc4cc(-c5cnc(C6COC6)cn5)c(F)cc4c3=O)C2)c1C(F)(F)F [Example 266, 7-fluoro-6-(5-(oxetan-3-yl)pyrazin-2-yl)-2-(((1R,3S)-3-((6-oxo-5-(trifluoromethyl)-1,6-dihydropyridazin-4-yl)amino)cyclohexyl)methyl)isoquinolin-1(2H)-one]",0.187
6,"CC(C)(O)c1cnc(-c2cc3ccn(C[C@@H]4CCC[C@H](Nc5cn[nH]c(=O)c5C(F)(F)F)C4)c(=O)c3cc2F)cn1 [Example 267, 7-fluoro-6-(5-(2-hydroxypropan-2-yl)pyrazin-2-yl)-2-(((1R,3S)-3-((6-oxo-5-(trifluoromethyl)-1,6-dihydropyridazin-4-yl)amino)cyclohexyl)methyl)isoquinolin-1(2H)-one]",0.0802
7,"O=c1[nH]ncc(N[C@H]2CCC[C@@H](Cn3ccc4cc(-c5ccc(C(F)(F)F)cn5)c(F)cc4c3=O)C2)c1C(F)(F)F [Example 268, 7-fluoro-2-(((1R,3S)-3-((6-oxo-5-(trifluoromethyl)-1,6-dihydropyridazin-4-yl)amino)cyclohexyl)methyl)-6-(5-(trifluoromethyl)pyridin-2-yl)isoquinolin-1(2H)-one]",0.013
8,"Nc1nc(-c2cc3ccn(C[C@@H]4CCC[C@H](Nc5cn[nH]c(=O)c5C(F)(F)F)C4)c(=O)c3cc2F)ccc1C(F)F [Example 269, 6-(6-amino-5-(difluoromethyl)pyridin-2-yl)-7-fluoro-2-(((1R,3S)-3-((6-oxo-5-(trifluoromethyl)-1,6-dihydropyridazin-4-yl)amino)cyclohexyl)methyl)isoquinolin-1(2H)-one]",0.0543
9,"O=c1[nH]ncc(N[C@H]2CCC[C@@H](Cn3ccc4cc(-c5cnc(C6CC6)cn5)c(F)cc4c3=O)C2)c1C(F)(F)F [Example 270, 6-(5-cyclopropylpyrazin-2-yl)-7-fluoro-2-(((1R,3S)-3-((6-oxo-5-(trifluoromethyl)-1,6-dihydropyridazin-4-yl)amino)cyclohexyl)methyl)isoquinolin-1(2H)-one]",0.149
10,"Nc1cc(-c2cc3ccn(C[C@@H]4CCC[C@H](Nc5cn[nH]c(=O)c5C(F)(F)F)C4)c(=O)c3cc2F)cnc1C(F)(F)F [Example 271, 6-(5-amino-6-(trifluoromethyl)pyridin-3-yl)-7-fluoro-2-(((1R,3S)-3-((6-oxo-5-(trifluoromethyl)-1,6-dihydropyridazin-4-yl)amino)cyclohexyl)methyl)isoquinolin-1(2H)-one]",0.211
